Results from US9315475B2 (MERCK SHARP & DOHME CORP., priority 2011, dated 2016).
pIC50: −log10 of the molar value.

Target: T1, wildtype HIV-1 protease (Human immunodeficiency virus type 1 group M subtype B, UniProt P04585)
T1 construct: the wildtype HIV-1 protease (which was expressed in Escherichia coli); made in house; host or cells: Escherichia coli
Experiment: Assay for inhibition of microbial expressed HIV protease (Pepcleav)
Type: biochemical
Conditions: wild type HIV-1 protease expressed in E. coli, peptide substrate, pH 5.5; mean of at least two independent experiments; read-out: Pepcleav
Description: Assay for Inhibition of Microbial Expressed HIV Protease (“Pepcleav”)
Studies of the inhibition of the wildtype HIV-1 protease (which was expressed in Escherichia coli) were carried out with a peptide substrate [Val-Ser-Gln-Asn-(βnaphthyl)Ala-Pro-Ile-Val (SEQ ID NO:1)]. The inhibitor is first preincubated with the HIV-1 protease (wild type) enzyme in assay buffer (50 mM sodium acetate, pH 5.5, 100 mM NaCl, and 0.1% BSA) for 30 minutes at room temperature. Substrate is added to 400 micromolar in a total volume of 20 microliters containing 20 picomolar HIV-1 protease (final) and the reaction is incubated for 1 hour at 30° C. The reaction is quenched with the addition of formic acid and indinavir to 0.012% and 150 nM final concentrations, respectively. The product formation is determined after separation of product and substrate on a Zorbax Eclipse XDB-C 18 column connected to an API 4000 mass spectrometer (Applied Biosystems) with multiple reaction monitoring (transitions were 644.5/428.9 and 615.4/422.2 (M1/M3) for product and indinavir respectively). The extent of inhibition of the reaction is determined from the peak area of the products.

| SMILES | pIC50 |
| --- | --- |
| COC(=O)N[C@H](C(=O)Nc1ccccc1CC[C@@H]1CN[C@H](CNC(=O)Nc2ccccn2)CO1)C(c1ccccc1)c1ccccc1 [Example 42, methyl N-[(1S)-1-benzhydryl-2-oxo-2-[[2-[2-[(2R,5R)-5-[(2-pyridylcarbamoylamino)methyl]morpholin-2-yl]ethyl]phenyl]amino]ethyl]carbamate] | 7.77 |
| N[C@@H](Cc1cccc2ccccc12)C(=O)Nc1cncc(F)c1CC[C@@H]1CN[C@H](COC(=O)NCc2ccc(F)cc2)CO1 [Example 191, {(3S,6R)-6-[2-(3-{[(2S)-2-amino-3-naphthalen-1-ylpropanoyl]amino}-5-fluoropyridin-4-yl)ethyl]morpholin-3-yl}methyl (4-fluorobenzyl)carbamate (non-preferred name)] | 6.89 |
| COC(=O)N[C@H](C(=O)Nc1ccccc1CC[C@@H]1CO[C@H](CCc2ccccc2NC(=O)[C@@H](NC(=O)OC)C(c2ccccc2)c2ccccc2)CN1)C(c1ccccc1)c1ccccc1 [Example 68, dimethyl [(2R,5R)-morpholine-2,5-diylbis {ethane-2,1-diylbenzene-2,1-diylimino[(2S)-1-oxo-3,3-diphenylpropane-1,2-diyl]}]biscarbamate] | 10.52 |
| N[C@@H](C(=O)Nc1cncc(F)c1CC[C@@H]1CN[C@H](CO)CO1)[C@@H](c1ccccc1)c1ccnc2ccccc12 [Example 225, (βS)-N-(5-fluoro-4-{2-[(2R,5R)-5-(hydroxymethyl)morpholin-2-yl]ethyl}pyridin-3-yl)-β-quinolin-4-yl-D-phenylalaninamide] | 5.57 |
| CC(C)(CO)NC(=O)OC[C@@H]1CO[C@H](CCc2c(F)cncc2NC(=O)[C@@H](N)C(c2ccc(F)cc2)c2ccc(F)cc2)CN1 [Example 218, 4-fluoro-N-(5-fluoro-4-{2-[(2R,5S)-5-({[(2-hydroxy-1,1-dimethylethyl)carbamoyl]oxy}methyl)morpholin-2-yl]ethyl}pyridin-3-yl)-β-(4-fluorophenyl)-L-phenylalaninamide] | 8.68 |
| COC(=O)N[C@H](C(=O)Nc1ccccc1CC[C@@H]1CN[C@H](COC(=O)N(C)C)CO1)C(c1ccccc1)c1ccccc1 [Example 26, methyl N-[(1S)-1-benzhydryl-2-[[2-[2-[(2R,5S)-5-(dimethylcarbamoyloxymethyl)morpholin-2-yl]ethyl]phenyl]amino]-2-oxo-ethyl]carbamate] | 6.68 |
| COC(=O)Nc1ccccc1CC[C@@H]1CO[C@H](CCc2ccccc2NC(=O)[C@@H](NC(=O)OC)C(c2ccccc2)c2ccccc2)CN1 [Example 76, methyl N-[(1S)-1-benzhydryl-2-[[2-[2-[(2R,5R)-5-[2-[2-(methoxy-carbonylamino)phenyl]ethyl]morpholin-2-yl]ethyl]phenyl]amino]-2-oxo-ethyl]carbamate] | 7.28 |
| COC(=O)N[C@H](C(=O)Nc1ccccc1CC[C@@H]1CN[C@H](COC(=O)NCc2ccc(F)cc2)CO1)C(c1ccccc1)c1ccccc1 [Example 16, methyl N-[(1S)-1-benzhydryl-2-[[2-[2-[(2R,5S)-5-[(4-fluorophenyl)methylcarbamoyloxymethyl]morpholin-2-yl]ethyl]phenyl]amino]-2-oxo-ethyl]carbamate] | 8.23 |
| COC(=O)N[C@H](C(=O)Nc1c(CC[C@@H]2CN[C@H](COC(=O)NCC(F)(F)F)CO2)cc[nH]c1=O)C(c1ccccc1)c1ccccc1 [Example 39, Nα-(methoxycarbonyl)-N-(2-oxo-4-{2-[(2R,5S)-5-({[(2,2,2-trifluoroethyl)carbamoyl]oxy}methyl)morpholin-2-yl]ethyl}-1,2-dihydropyridin-3-yl)-β-phenyl-L-phenylalaninamide] | 8.64 |
| COC(=O)NCC(=O)Nc1ccccc1CC[C@@H]1CO[C@H](CCc2ccccc2NC(=O)[C@@H](NC(=O)OC)C(c2ccccc2)c2ccccc2)CN1 [Example 69, methyl N-[(1S)-1-benzhydryl-2-[[2-[2-[(2R,5R)-5-[2-[2-[[2-(methoxycarbonylamino)acetyl]amino]phenyl]ethyl]morpholin-2-yl]ethyl]phenyl]amino]-2-oxo-ethyl]carbamate] | 8.47 |
| COC(=O)N[C@H](C(=O)Nc1ccccc1CC[C@@H]1CN[C@H](C(=O)O)CO1)C(c1ccccc1)c1ccccc1 [Example 1, (3S,6R)-6-[2-(2-{[N-(methoxycarbonyl)-β-phenyl-L-phenylalanyl]amino}phenyl)ethyl]morpholine-3-carboxylic acid] | 7.19 |
| COC(=O)N[C@H](C(=O)Nc1c(CC[C@@H]2CN[C@H](COC(=O)NCC(F)(F)F)CO2)ccnc1OC)C(c1ccccc1)c1ccccc1 [Example 35, Nα-(methoxycarbonyl)-N-(2-methoxy-4-{2-[(2R,5S)-5-({[(2,2,2-trifluoroethyl)carbamoyl]oxy}methyl)morpholin-2-yl]ethyl}pyridin-3-yl)-β-phenyl-L-phenylalaninamide] | 7.22 |
| COC(=O)N[C@H](C(=O)Nc1ccccc1CC[C@@H]1CN[C@H](CNS(=O)(=O)Cc2ccccc2)CO1)C(c1ccccc1)c1ccccc1 [Example 50, N-(2-{2-[(2R,5R)-5-{[(benzylsulfonyl)amino]methyl}morpholin-2-yl]ethyl}phenyl)-Nα-(methoxycarbonyl)-β-phenyl-L-phenylalaninamide] | 7.31 |
| N[C@H](C(=O)Nc1cccc(F)c1CC[C@@H]1CN[C@H](COC(=O)NCc2ccncc2)CO1)C(c1ccc(F)cc1)c1ccc(F)cc1 [Example 198, 4-fluoro-β-(4-fluorophenyl)-N-(3-fluoro-2-{2-[(2R,5S)-5-({[(pyridin-4-ylmethyl)carbamoyl]oxy}methyl)morpholin-2-yl]ethyl}phenyl)-L-phenylalaninamide] | 7.36 |
| COC(=O)N[C@H](C(=O)Nc1ccccc1CC[C@@H]1CN[C@H](CNC(=O)c2c(C)cccc2C)CO1)C(c1ccccc1)c1ccccc1 [Example 57, methyl N-[(1S)-1-benzhydryl-2-[[2-[2-[(2R,5R)-5-[[(2,6-dimethylbenzoyl)amino]methyl]morpholin-2-yl]ethyl]phenyl]amino]-2-oxo-ethyl]carbamate] | 7.30 |
| COC(=O)N[C@H](C(=O)Nc1ccccc1CC[C@@H]1CN[C@H](COC(=O)NCc2cncs2)CO1)C(c1ccccc1)c1ccccc1 [Example 19, methyl N-[(1S)-1-benzhydryl-2-oxo-2-[[2-[2-[(2R,5S)-5-(thiazol-5-ylmethylcarbamoyloxymethyl)morpholin-2-yl]ethyl]phenyl]amino]ethyl]carbamate] | 7.32 |
| C[C@H](Oc1c(F)cccc1NC(=O)[C@@H](N)C(c1ccc(F)cc1)c1ccc(F)cc1)[C@@H]1CN[C@H](COC(=O)NCc2ccc(F)cc2)CO1 [Example 195, 4-fluoro-N-(3-fluoro-2-{(1S)-1-[(2S,5S)-5-({[(4-fluorobenzyl)carbamoyl]oxy}methyl)morpholin-2-yl]ethoxy}phenyl)-β-(4-fluorophenyl)-L-phenylalaninamide] | 7.04 |
| COC(=O)N[C@H](C(=O)Nc1ccccc1CC[C@@H]1CN[C@H](C(=O)NCCc2ccccc2)CO1)C(c1ccccc1)c1ccccc1 [Example 6, Nα-(methoxycarbonyl)-β-phenyl-N-[2-(2-{(2R,5S)-5-[(2-phenylethyl)carbamoyl]morpholin-2-yl}ethyl)phenyl]-L-phenylalaninamide] | 8.00 |
| COC(=O)N[C@H](C(=O)Nc1ccccc1CC[C@@H]1CN[C@H](CNC(=O)c2ccccc2Cl)CO1)C(c1ccccc1)c1ccccc1 [Example 55, methyl N-[(1S)-1-benzhydryl-2-[[2-[2-[(2R,5R)-5-[[(2-chloro-benzoyl)amino]methyl]morpholin-2-yl]ethyl]phenyl]amino]-2-oxo-ethyl]carbamate] | 7.52 |
| COC(=O)N[C@H](C(=O)Nc1ccccc1CC[C@@H]1CN[C@H](C(=O)NC2CCOC2)CO1)C(c1ccccc1)c1ccccc1 (stereo partly drawn) [Example 4, Nα-(methoxycarbonyl)-β-phenyl-N-(2-{2-[(2R,5S)-5-(tetrahydrofuran-3-ylcarbamoyl)morpholin-2-yl]ethyl}phenyl)-L-phenylalaninamide] | 7.60 |
| COC(=O)N[C@H](C(=O)Nc1cncnc1CC[C@@H]1CN[C@H](COC(=O)NCC(F)(F)F)CO1)C(c1ccccc1)c1ccccc1 [Example 37, Nα-(methoxycarbonyl)-β-phenyl-N-(4-{2-[(2R,5S)-5-({[(2,2,2-trifluoroethyl)carbamoyl]oxy}methyl)morpholin-2-yl]ethyl}pyrimidin-5-yl)-L-phenylalaninamide] | 6.74 |
| COC(=O)N[C@H](C(=O)Nc1ccccc1CC[C@@H]1CN[C@H](Cn2cc(-c3ccccc3)nn2)CO1)C(c1ccccc1)c1ccccc1 [Example 64, Nα-(methoxycarbonyl)-β-phenyl-N-[2-(2-{(2R,5R)-5-[(4-phenyl-1H-1,2,3-triazol-1-yl)methyl]morpholin-2-yl}ethyl)phenyl]-L-phenylalaninamide] | 7.25 |
| COC(=O)N[C@H](C(=O)Nc1ccccc1CC[C@@H]1CN[C@H](CCc2ccccc2NS(=O)(=O)Cc2ccccc2)CO1)C(c1ccccc1)c1ccccc1 [Example 73, N-(2-{2-[(2R,5R)-5-(2-{2-[(benzylsulfonyl)amino]phenyl}ethyl)morpholin-2-yl]ethyl}phenyl)-Nα-(methoxycarbonyl)-β-phenyl-L-phenylalaninamide] | 7.68 |
